Source: patent US10912743B2, “Compositions for treating inflammation and methods of treating the same” (Novan, Inc., priority 2016, dated 2021)
Marks after values point to notes of the source that are not given here.

Legend:
[1] = tested on: oxazolone-induced ear swelling; assay: Oxazolone-induced ear swelling assay in BALB/c mice; format: in vivo
Procedure: Groups of 5 BALB/c male mice weighing 22±2 g were used. The animals were sensitized by application of oxazolone (100 μL, 1.5% in acetone) to their preshaved abdominal surface. Seven days later, test substances (20 mg/ear) and vehicle (20 μL/ear) were applied topically to the anterior and posterior surfaces of the right ear 30 min before and 15 min after oxazolone (1%, 20 μL/ear) challenge. Ear swelling was measured with a Dyer model micrometer gauge at 24 hours after oxazolone challenge as an index of inflammation. Ear edema was calculated by subtracting the thickness of the left ear (normal control) from the right ear (treated ear). Percent inhibition was calculated according to the formula: (Ic −It)/Ic×100, where Ic and It refers to increase of ear thickness (mm) in control and treated mice, respectively. One-way ANOVA and Dunnett's test were used to determine statistical significance between vehicle control and treated groups. Significance is set at P<0.05.
Test substances and vehicles were each administered topically (TOP) at 30 minutes before and 15 minutes after challenge with the second application of oxazolone.
The test system used was a 7-day oxazolone-induced ear swelling assay. […] Ear swelling was measured with a Dyer model micrometer gauge at 24 hours after oxazolone challenge as an index of inflammation. Ear edema was calculated by subtracting the thickness of the left ear (normal control) from the right ear (treated ear) (Table 9). […] Percent inhibition was calculated according to the formula: (Ic−It)/Ic×100, where Ic and It refer to increase of ear thickness (mm) in control and treated mice, respectively. […]
BALB/c mice are sensitized with oxazolone exposure to the abdomen and are subsequently challenged (7 days post-sensitization) with oxazolone application to the right ear. […] The effect of anti-inflammatory test articles is then assessed by measuring the amount of ear swelling, which is reported as a percentage in comparison to the study vehicle. […]

Th17/IL-17 pathway = details: skin biopsies stimulated with cytokine cocktail 48 hrs; cited from earlier work

Structure (SMILES): C[C@@H]1C[C@H]2[C@@H]3CCC4=CC(=O)C=C[C@]4(C)[C@@]3(F)[C@@H](O)C[C@]2(C)[C@@]1(O)C(=O)CO [Dexamethasone]
- Ear Swelling % Inhibition (vs. Vehicle A) ([1]; Example 2 study, TOP x 2 (30 min before, 15 min after oxazolone challenge), 24 hours, vs acetone/ethanol 1/1): 85* %
- % inhibition of oxazolone-induced ear swelling vs ethanol/acetone ([1]; Example 4 study, TOP x 2, 24 hours): 86%
- Net Swelling on Right Ear (Mean ± SEM, ×0.01 mm) ([1]; Example 4 study, TOP x 2, 24 hours after oxazolone challenge): 3.2 ± 0.4 ×0.01 mm

Structure (SMILES): C=C1/C(=C\C=C2/CCC[C@]3(C)[C@@H]([C@H](C)/C=C/[C@@H](O)C4CC4)CC[C@@H]23)C[C@@H](O)C[C@@H]1O [calcipotriol]
- IL-17 secretion (Th17/IL-17 pathway): partial inhibition of IL-17 secretion
